Measured values taken from patent US20060128792A1, “Deguelin as a chemopreventive agent for lung cancer” (priority 2002, published 2006).
“And” between values parts separate entries of the source, which are not always exact repeats. Identical values can stand only once.

Tests used:
Format in all cases: cell-based
NSCLC cells = assay: MTT assay, growth inhibition of NSCLC cells by deguelin and deguelin derivatives (Table 2, FIG. 7); details: 72 h, depending on the cell line, 3 days
1799 cells = assay: Apoptosis assay (TUNEL, APO-BRDU kit, flow cytometry; DNA fragmentation); details: for apoptosis in 1799 cells (TUNEL, flow cytometry): 3 days
Procedure: Apoptosis assay. Normal, premalignant, and malignant HBE cells were exposed to v various doses of deguelin for 3 days. […] Both adherent and floating cells were combined for the assessment of apoptosis using the APO-BRDU staining kit (Phoenix Flow Systems, San Diego, Calif.). Briefly, floating and attached cells dispersed with trypsin-EDTA were pelleted, washed, and fixed by 1% paraformaldehyde followed by 70% ethanol. The fixed cells were washed and incubated with DNA-labeling solution containing terminal deoxynucleotidyl transferase (TdT) reaction buffer, TdT enzyme, and bromodeoxyuridine triphosphate (Br-dUTP). Cells were rinsed, resuspended with fluorescein-PRB-I antibody solution, and analyzed by flow cytometry in the presence of PI/RNase solution. All analyses were performed based on 3000 to 10,000 events using a FACScan flow cytometer (Becton Dickinson, San Jose, Calif.) equipped with a 488-nm argon ion laser and CellQuest software. A dual display of DNA area (linear red fluorescence) and Br-dUTP incorporation (FITC-PRB-1) was used to determine the percentage of apoptotic cells.
The percentage of dead cells was determined by fluorescent-activated cell sorting (FACS) analysis of PI-stained nuclei. Apoptosis was also determined by the detection of nucleosomal DNA fragmentation, which was measured using the TACS apoptotic DNA Jaddering kit (Trevigen, Inc., Gaithersburg, Md.) according to the manufacturer's protocol. […] Apoptosis was analyzed using the APO-BRDU staining kit (Phoenix Flow Systems) as described above.

H226Br = assay: MTT assay, growth inhibition by deguelin or deguelin derivatives; details: 3 days
Sk-mes = assay: as above; details: 3 days
[1] = system: pAkt (Ser473) and pGSK-3β (Ser9) in squamous HBE cells; assay: Western blot of pAkt (Ser473) and pGSK-3β (Ser9); details: time-dependent
Procedure: Immunoblotting. Whole cell lysates were prepared in lysis buffer (50 mM N-[2-[…]]-piperazine-N′-[2-ethanesulfonic acid] [HEPES; pH 7.5], 150 mM NaCl, 1.5 mM MgCl2, ImM EDTA, 0.2 mM EGTA, 1% NP40, 10% glycerol, 1 mM dithiothreitol (DTT), 1 mM phenylmethylsulfonyl fluoride, 20 mM sodium fluoride, 5 mM sodium orthovanadate, 10 μg/ml aprotinin, 10 μg/ml leupeptin, 2 μg/ml pepstatin, and 1 mM benzamidine) as described previously (Lee et al., 2002). Equivalent protein concentrations were resolved in sodium dodecyl sulfate-polyacrylamide gels and transferred to a nitrocellulose membrane. After the blocking of transblotted membrane in Tris-buffered saline (TBS) containing 0.05% Tween 20 (TBST) and 5% low fat milk, themembrane was incubated with primary antibody at the appropriate dilution in TBS-5% low-fat milk at 4° C. for 16 h and washed with TBST. The immunoblots were visualized using the ECL kit (Amersham, Inc., Arlington Heights, III) according to the manufacturer's directions. Rabbit polyclonal antibodies against human pAkt (Ser473), Akt, and pGSK-3β (Ser9), and mouse monoclonal antibody against human anti-pMAPK (Thr202/Tyr204) were purchased from Cell Signalinng Technology (Beverly, Mass.). […]
Effects of Deguelin on Squamous Differentiated HBE Cells. […] It was then determined whether deguelin inhibits the activation of PI3K/Akt pathway in squamous HBE cells. […]

H596 = assay: MTT assay, growth inhibition by deguelin or deguelin derivatives; details: H596, 3 days

## COc1cc2c(cc1OC)[C@@H]1C(=O)c3ccc4c(c3O[C@@H]1CO2)C=CC(C)(C)O4 [Deguelin]
NSCLC cells
  IC50: 100 to 1000 nM
1799 cells; 10^−7 M deguelin, 2 days
  induction of apoptosis, Ad5CMV-Myr.Akt.HA-infected 1799 cells: less than 10%
  induction of apoptosis, uninfected or empty virus-infected 1799 cells: About 40%
1799 cells; 10^−7 M deguelin
  apoptosis in 1799 cells (TUNEL, flow cytometry): more than 90%
1799 cells; 10^−8 M deguelin
  apoptosis in 1799 cells (TUNEL, flow cytometry): 68.5%
1799 cells; three days of treatment, dose-dependent
  DNA fragmentation in 1799 cells: induced the generation of nucleosomal-sized ladders of DNA fragments
H226Br; deguelin 10^−6M
  Av. % con: 0.82 % con
  MTT value, mean of replicates (unheaded line): 0.266
  MTT value, replicate (unheaded line): 0.264 (2×) and 0.271
H226Br; deguelin 10^−8M
  Av. % con: 0.85 % con
  MTT value, mean of replicates (unheaded line): 0.276
  MTT value, replicate (unheaded line): 0.296 and 0.273 and 0.259
H226Br; deguelin 10^−10M
  Av. % con: 1.02 % con
  MTT value, mean of replicates (unheaded line): 0.330
  MTT value, replicate (unheaded line): 0.321 and 0.329 and 0.34
H226Br; deguelin 10^−12M
  Av. % con: 0.96 % con
  MTT value, mean of replicates (unheaded line): 0.310
  MTT value, replicate (unheaded line): 0.3 and 0.318 and 0.313
Sk-mes; deguelin 10^−6M
  Avg. % con: 0.45 % con
  MTT value, mean of replicates (unheaded line): 0.121
  MTT value, replicate (unheaded line): 0.107 and 0.135 and 0.122
Sk-mes; deguelin 10^−8M
  Avg. % con: 0.79 % con
  MTT value, mean of replicates (unheaded line): 0.211
  MTT value, replicate (unheaded line): 0.207 and 0.209 and 0.216
Sk-mes; deguelin 10^−10M
  Avg. % con: 0.92 % con
  MTT value, mean of replicates (unheaded line): 0.247
  MTT value, replicate (unheaded line): 0.243 and 0.223 and 0.274
Sk-mes; deguelin 10^−12M
  Avg. % con: 0.96 % con
  MTT value, mean of replicates (unheaded line): 0.258
  MTT value, replicate (unheaded line): 0.253 and 0.258 and 0.264
[1]
  elevated levels of pAkt (Ser473) and pGSK-3β (Ser9): down-regulated
H596; deguelin 10^−6M
  Avg. % con: 0.62 % con
  MTT value, mean of replicates (unheaded line): 0.290
  MTT value, replicate (unheaded line): 0.29 and 0.298 and 0.281
H596; deguelin 10^−8M
  Avg. % con: 0.67 % con
  MTT value, mean of replicates (unheaded line): 0.314
  MTT value, replicate (unheaded line): 0.324 and 0.311 and 0.307
H596; deguelin 10^−10M
  Avg. % con: 0.67 % con
  MTT value, mean of replicates (unheaded line): 0.313
  MTT value, replicate (unheaded line): 0.314 and 0.338 and 0.287
H596; deguelin 10^−12M
  Avg. % con: 0.76 % con
  MTT value, mean of replicates (unheaded line): 0.358
  MTT value, replicate (unheaded line): 0.386 and 0.372 and 0.317
